Values of other authors in patent US20250108011A1, “ORAL DOSAGE FORMS OF A […] ACTIVE ACID-LABILE SALT AND METHODS AND USES RELATED THERETO” (Rijksuniversiteit Groningen, priority 2022, published 2025).

Columns and labels:
hypercalciuric rats = details: oral, ref [22]
calciphylaxis = details: oral maintenance therapy, ref [21]
[1] = test system: pregnant Dahl salt-sensitive rats; details: ref [23]

## O=S([O-])([O-])=S.[Na+].[Na+] [STS, Sodium thiosulfate]
Hypertensive rats; oral, ref [19]
  renal effect of oral STS as a single treatment regimen: renoprotective effects
Hypertensive rats; refs [17,18]
  effect as a single treatment regimen in hypertensive rats: reduced blood pressure, proteinuria, kidney and heart damage
Hypertensive rats; same model, ref [20]
  cardiac effect of oral STS: Cardioprotective effects
Hypercalciuric rats
  effect on nephrolithiasis: reduce calcium phosphate nephrolithiasis
calciphylaxis
  tolerability of oral administration: well tolerated with no reported side effects
[1]
  effect on blood pressure: antihypertensive effects
